Measured values from paper PMC10899635, “Q586B2 is a crucial virulence factor during the early stages of Trypanosoma brucei infection that is conserved amongst trypanosomatids” (Nature Communications, 2024).

Assays:
rmMIF = biological target: T1, rmMIF (Mus musculus, UniProt P34884); assay: dopachrome methyl ester tautomerase assay, OD475 nm; format: biochemical; details: 83.3 nM protein preincubated 1 h at 37 °C with 10 µM ISO-1; pH 6.0, 25 °C
T1 construct: gene Mif; commercial recombinant (R&D systems); trimer
T1 sequence (P34884 2-115): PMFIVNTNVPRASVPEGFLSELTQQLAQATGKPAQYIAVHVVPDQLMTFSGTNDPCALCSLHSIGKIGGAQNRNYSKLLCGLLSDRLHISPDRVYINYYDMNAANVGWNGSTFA

Q586B2 = biological target: T2, Q586B2 (Trypanosoma brucei, UniProt Q586B2); assay: as above; format: biochemical; details: 83.3 nM protein; 50 mM potassium phosphate, 1 mM EDTA, pH 6.0, 25 °C
T2 construct: gene Tb06.4F7.140; full length, 115 aa, 13 kDa; N-terminal His6- and FLAG-tag (removable); codon-optimized, E. coli WK6
T2 sequence (Q586B2 entry or part of it): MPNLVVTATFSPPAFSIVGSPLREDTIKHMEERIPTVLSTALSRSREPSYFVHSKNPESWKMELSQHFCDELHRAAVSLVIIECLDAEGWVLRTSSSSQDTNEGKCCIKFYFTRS

SMILES: COC(=O)CC1CC(c2ccc(O)cc2)=NO1 (centres unmarked) [ISO-1]
- % tautomerase activity with 10 μM ISO-1 (rmMIF): contrast to MIF, the Q586B2 tautomerase activity was not inhibited by the small molecule ISO-1

SMILES: COC(=O)[C@@H]1CC2=CC(=O)C(=O)C=C2N1 [dopachrome methyl ester]
- % tautomerase activity of rmMIF (Q586B2): Q586B2 indeed exhibited a moderate tautomerase activity
